Entries after “also recorded” stand apart in the source; their conditions may differ.
Columns and labels:
[1] = Sensory evaluation of fizziness enhancement in carbonated water (WILKINSON TANSAN), specialized panelists; format: in vivo; settings: for Fizziness enhancement evaluation result: average score of seven panelists, 1 to 5
Procedure: (§1) In the following Examples, the action and effect were verified using a value obtained by calculating an average score of scores for imparting or enhancing fizziness by sensory evaluation conducted by specialized panelists. The expression “1 point” in the evaluation is the evaluation in the case where no component is added at all (no addition).
Diethyl sebacate (manufactured by Inoue Perfumery Mfg. Co., Ltd., the same applies to the following Examples) was separately added to “WILKINSON (registered trademark) TANSAN (manufactured by Asahi Soft Drinks Co., Ltd.)” so as to reach the concentrations shown in Table 2 below, and sensory evaluation was performed by seven specialized panelists to determine the extent to which fizziness was enhanced as compared with a control in which diethyl sebacate was not added.
Diisobutyl adipate (manufactured by Inoue Perfumery Mfg. Co., Ltd., the same applies to the following Examples) was separately added to “WILKINSON (registered trademark) TANSAN (manufactured by Asahi Soft Drinks Co., Ltd.)” so as to reach the concentrations shown in Table 3 below, and sensory evaluation was performed by seven specialized panelists to determine the extent to which fizziness was enhanced as compared with a control in which diisobutyl adipate was not added.
Dimethyl sebacate (manufactured by Tokyo Chemical Industry Co., Ltd.) was separately added to “WILKINSON (registered trademark) TANSAN (manufactured by Asahi Soft Drinks Co., Ltd.)” so as to reach the concentrations shown in Table 4 below, and sensory evaluation was performed by seven specialized panelists to determine the extent to which fizziness was enhanced as compared with a control in which dimethyl sebacate was not added.
Dipropyl adipate (manufactured by Tokyo Chemical Industry Co., Ltd.) was separately added to “WILKINSON (registered trademark) TANSAN (manufactured by Asahi Soft Drinks Co., Ltd.)” so as to reach the concentrations shown in Table 5 below, and sensory evaluation was performed by seven specialized panelists to determine the extent to which fizziness was enhanced as compared with a control in which dipropyl adipate was not added.

[2] = Sensory evaluation of fizziness enhancement in cider-flavored carbonated beverage; format: in vivo; settings: for Fizziness enhancement evaluation result: average score of seven panelists, 1 to 5
Procedure: as §1
Diethyl sebacate was separately added to “Mitsuya Cider (registered trademark) Zero Strong (manufactured by Asahi Soft Drinks Co., Ltd.)” so as to reach the concentrations shown in Table 6 below, and sensory evaluation was performed by seven specialized panelists to determine the extent to which fizziness was enhanced as compared with a control in which diethyl sebacate was not added.

[3] = Sensory evaluation of fizziness enhancement in carbonated grapefruit flavored Chu-Hi; format: in vivo; settings: for Fizziness enhancement evaluation result: carbonated Chu-Hi, average score of seven panelists, 1 to 5
[4] = Sensory evaluation of carbonation sensation imparting in cola-flavored compressed tablet candy; format: in vivo; settings: for Carbonation sensation imparting evaluation result: compressed tablet candy, average score of six panelists, 1 to 5
Procedure: as §1
(§2) Diethyl sebacate was separately added to a cola-flavored compressed tablet candy prepared according to the formulation shown in Table 14 using a pestle with a diameter of 7 mm, so as to reach a concentration shown in Table 15 below, and sensory evaluation was performed by six panelists to determine the extent to which fizziness was imparted as compared with a control in which diethyl sebacate was not added.

[5] = Sensory evaluation of carbonation sensation imparting in cider-flavored frozen dessert; format: in vivo; settings: for Carbonation sensation imparting evaluation result: average score of seven panelists, 1 to 5
Procedure: as §1
as §2, with “cider-flavored frozen dessert” for “cola-flavored compressed tablet candy”, “16” for “14 using a pestle with a diameter of 7 mm,”, “17” for “15”, “seven” for “six”

human TRPV1 = target: T1, human TRPV1 (Homo sapiens, UniProt Q8NER1); assay: Evaluation of human TRPV1 activity in stably expressing cells (Fluo 4-AM calcium fluorescence); format: cell-based; settings: human TRPV1 stably expressing Flp-In 293 cells; fluorescence 485/525 nm, 27° C.
T1 construct: doxycycline-inducible Flp-In T-REx 293 cells; Fluo-4 calcium assay
Source text: The full-length human TRPA1 gene (GenBank Accession Number: NM_007332) was amplified from plasmid pFN21AB7348 (manufactured by Kazusa DNA Research Institute), and the full-length human TRPV1 gene (GenBank Accession Number: NM_018727) was amplified from pFN21AE2418 (manufactured by Kazusa DNA Research Institute) using PCR. The obtained PCR product was subcloned into pcDNA5/FRT/TO (manufactured by ThermoFisher Scientific), and then introduced into Flp-In 293 cells (manufactured by Thermo Fisher Scientific) using a Flp-In T-REX system (manufactured by Thermo Fisher Scientific) to prepare a human TRPA1 stably expressing cell line and a human TRPV1 stably expressing cell line […]
After replacing the culture medium with buffer solution, fluorescent calcium indicator Fluo 4-AM (manufactured by Dojindo Laboratories) was added and incubated at 37° C. for 1 hour. After replacing the culture solution with buffer solution again, the microplate was set to a fluorescence microplate reader FlexStation 3 (manufactured by Molecular Devices, LLC.). Diethyl sebacate was added at various concentrations at an internal temperature of 27° C., and the fluorescence intensity at a wavelength of 525 nm when excited at a wavelength of 485 nm was measured. […]

[6] = carbonated grapefruit flavored Chu-Hi

T1 sequence (Q8NER1 whole entry): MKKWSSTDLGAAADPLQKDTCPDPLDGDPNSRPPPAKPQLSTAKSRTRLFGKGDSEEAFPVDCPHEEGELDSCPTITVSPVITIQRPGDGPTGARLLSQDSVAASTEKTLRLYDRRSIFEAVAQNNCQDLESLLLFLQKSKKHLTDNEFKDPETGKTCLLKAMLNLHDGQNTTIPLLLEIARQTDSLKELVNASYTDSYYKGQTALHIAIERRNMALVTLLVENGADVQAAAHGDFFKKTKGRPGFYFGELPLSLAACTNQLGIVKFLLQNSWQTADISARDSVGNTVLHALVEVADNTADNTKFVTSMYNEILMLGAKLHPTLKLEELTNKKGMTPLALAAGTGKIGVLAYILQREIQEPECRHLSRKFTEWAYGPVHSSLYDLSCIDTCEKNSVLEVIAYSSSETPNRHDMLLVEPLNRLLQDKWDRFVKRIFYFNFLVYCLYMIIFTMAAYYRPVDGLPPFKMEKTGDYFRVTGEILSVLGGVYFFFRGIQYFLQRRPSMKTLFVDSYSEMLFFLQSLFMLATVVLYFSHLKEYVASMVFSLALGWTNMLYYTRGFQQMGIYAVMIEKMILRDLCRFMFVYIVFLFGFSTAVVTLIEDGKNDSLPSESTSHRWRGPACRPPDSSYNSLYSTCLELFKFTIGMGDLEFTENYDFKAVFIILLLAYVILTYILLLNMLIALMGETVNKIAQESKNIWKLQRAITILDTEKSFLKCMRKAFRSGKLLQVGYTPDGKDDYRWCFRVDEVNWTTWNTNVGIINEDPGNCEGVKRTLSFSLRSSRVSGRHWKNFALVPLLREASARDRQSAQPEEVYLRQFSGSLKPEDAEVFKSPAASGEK

SMILES: CCOC(=O)CCCCCCCCC(=O)OCC [Diethyl sebacate, diethyl sebacate]
- amelioration of mouthfeel (in words) [1]: effect of ameliorating the mouthfeel was also confirmed
- fizziness enhancement (in words) [1]: fizziness of carbonated water can be enhanced
- Fizziness enhancement evaluation result ([1]; 0.1 ppm): 1.1 points
- Fizziness enhancement evaluation result ([1]; 0.3 ppm): 2.1 points
- Fizziness enhancement evaluation result ([1]; 1 ppm): 3.7 points
- Fizziness enhancement evaluation result ([1]; 5 ppm): 4.6 points
- Fizziness enhancement evaluation result ([1]; 10 ppm): 4.5 points
- Fizziness enhancement evaluation result ([1]; 20 ppm): 2.5 points
- Fizziness enhancement evaluation result ([1]; 50 ppm): 2.1 points
- Fizziness enhancement evaluation result ([1]; 100 ppm): 1.7 points
- amelioration of mouthfeel (in words) [2]: effect of ameliorating the mouthfeel was also confirmed
- fizziness enhancement (in words) [2]: fizziness of the cider-flavored carbonated beverage can be enhanced
- Fizziness enhancement evaluation result ([2]; 0.1 ppm): 1.3 points
- Fizziness enhancement evaluation result ([2]; 0.3 ppm): 1.9 points
- Fizziness enhancement evaluation result ([2]; 1 ppm): 3.7 points
- Fizziness enhancement evaluation result ([2]; 5 ppm): 3.9 points
- Fizziness enhancement evaluation result ([2]; 10 ppm): 3.7 points
- Fizziness enhancement evaluation result ([2]; 20 ppm): 3.6 points
- Fizziness enhancement evaluation result ([2]; 50 ppm): 3.3 points
- Fizziness enhancement evaluation result ([2]; 100 ppm): 1.1 points
- Fizziness enhancement evaluation result ([3]; 0.1 ppm): 1.1 points
- Fizziness enhancement evaluation result ([3]; 0.3 ppm): 1.7 points
- Fizziness enhancement evaluation result ([3]; 1 ppm): 4.0 points
- Fizziness enhancement evaluation result ([3]; 5 ppm): 4.0 points
- Fizziness enhancement evaluation result ([3]; 10 ppm): 3.9 points
- Fizziness enhancement evaluation result ([3]; 20 ppm): 3.4 points
- Fizziness enhancement evaluation result ([3]; 50 ppm): 2.6 points
- Fizziness enhancement evaluation result ([3]; 100 ppm): 1.3 points
- amelioration of mouthfeel (in words) [3, 6]: effect of ameliorating the mouthfeel was also confirmed
- fizziness enhancement (in words) [3, 6]: fizziness of the carbonated grapefruit flavored Chu-Hi can be enhanced
- Carbonation sensation imparting evaluation result ([4]; 0.1 ppm): 1.5 points
- Carbonation sensation imparting evaluation result ([4]; 1 ppm): 2.2 points
- Carbonation sensation imparting evaluation result ([4]; 10 ppm): 2.5 points
- Carbonation sensation imparting evaluation result ([4]; 100 ppm): 4.0 points
- Carbonation sensation imparting evaluation result ([4]; 1000 ppm): 3.0 points
- Carbonation sensation imparting evaluation result ([4]; 10000 ppm): 1.5 points
- Carbonation sensation imparting evaluation result ([4]; 20000 ppm): 1.2 points
- amelioration of mouthfeel (in words) ([4]; compressed tablet candies): effect of ameliorating the mouthfeel was also confirmed
- fizziness imparting (in words) ([4]; compressed tablet candies): fizziness can be imparted to compressed tablet candies
- amelioration of mouthfeel (in words) [5]: effect of ameliorating the mouthfeel was also confirmed
- fizziness imparting (in words) [5]: fizziness can be imparted to the cider-flavored frozen dessert
- Carbonation sensation imparting evaluation result ([5]; 0.1 ppm): 1.4 points
- Carbonation sensation imparting evaluation result ([5]; 0.3 ppm): 1.9 points
- Carbonation sensation imparting evaluation result ([5]; 1 ppm): 2.1 points
- Carbonation sensation imparting evaluation result ([5]; 5 ppm): 3.6 points
- Carbonation sensation imparting evaluation result ([5]; 10 ppm): 4.5 points
- Carbonation sensation imparting evaluation result ([5]; 20 ppm): 3.6 points
- Carbonation sensation imparting evaluation result ([5]; 50 ppm): 2.7 points
- Carbonation sensation imparting evaluation result ([5]; 100 ppm): 1.4 points
- TRPV1 activity (human TRPV1): high TRPA1 activity and TRPV1 activity; also recorded: respond
